# Measurements from US20170326165A1, “USE OF RIBOSE IN FIRST RESPONSE TO ACUTE MYOCARDIAL INFARCTION” (BIOENERGY, INC., priority 2008, published 2017).
# Key:
# healthy dog hearts = settings: administration immediately at reperfusion and continuing for at least four days; cited from earlier work
# [1] = system: myocardial dysfunction resulting from globally induced ischemia during cardiac surgical procedures; assay type: in vivo, human
# Method: B. A preconditioning study was performed in human patients scheduled for surgery.
# Inclusion criteria were: • Males or females aged 18 or older • Patients with documented coronary artery disease undergoing CABG with an ejection fraction (EF) of 35% based on echocardiography, radionuclide imaging or cardiac catheterization done within eight weeks of surgery. (If more than one method was used to evaluate EF during this period, the mean values of the various methods were 35%). • Patients undergoing single or double valve replacement with documented coronary artery disease also undergoing CABG; or patients undergoing single or double valve replacement without CABG • Serum creatinine of <2.35 mg/dl • For females of childbearing potential, a negative pregnancy test. • Signed consent forms.
# The test article, placebo or ribose, was dispensed according to computer-generated randomization schedule either for patients undergoing CABG only or for patients undergoing heart valve surgery +/−CABG. All patients received a high dose narcotic anaesthesia technique consisting of either fentanyl (50-100 μg/kg) or sufentanil (10-20 μg/kg) and midazolam. No restriction was placed on the type of anaesthetic agents administered. The anaesthesiologists and surgeons responsible for the care of the patents made the clinical decision to use inotropic support, intra-aortic balloon pump support or post bypass circulatory support based on their knowledge of patients requirements and accepted medical practice and without regard to test article status. The test article infusion was started intravenously at the time of aortic cross clamping and continued until the pulmonary artery catheters introducer was removed or for five days (120) hours whichever occurred first. The surgeons responsible for the clinical care of the patients removed the pulmonary artery catheter cordis without regard to test article stats.
# Hemodynamic measurements consisting of heart rate, blood pressure, pulmonary artery pressures, pulmonary capillary wedge pressure (PCWP), central venous pressure (CVP) and thermodilution cardiac index (CI) were obtained at the following time intervals: immediately prior to induction of anaesthesia, post induction of anaesthesia prior to sternotomy, post sternotomy prior to initiation of cardiopulmonary bypass, upon successful termination of cardiopulmonary bypass prior to sternal closure and prior to reversal of heparinization with protamine, post closure of the sternum, upon arrival in the intensive care unit and at one or two hour intervals until the pulmonary artery a catheter was removed.
# Transesophageal echocardiography data (H.P. Sonos OR, 5.0 MHz, Andover, Mass.) was collected at the following time intervals: post induction of anaesthesia prior to sternotomy, and immediately post closure of the sternum. Transthoracic echocardiography (H.P. Sonos 1500. 2.5 MHz, Andover, Mass.) measurements were made on day three and day seven of the study period. For both the transesophageal and transthoracic echocardiograms, the following long axis and short axis mid-papillary area changes were measured in triplicate by acoustic quantification techniques: end diastolic area (EDA), end systolic area (ESA), fractional area change (FAC), +dA/dt and −dA/dt. All area change data were also analyzed by manual off line analysis. EF was also determined off line using a long axis view, In addition, regional wall motion was quantified as the following: normal=1, hypokinetic=2, akinetic=3 and dyskinetic=4. The wall motion index score (WMIS) and percentage normal myocardium were calculated by reading a maximum of sixteen segments. Echocardiography data for evaluating wall motion and area change was analyzed only if greater than 75% of the endocardial border could be visualized through a complete cardiac cycle. Off line analysis was performed on an Image View echocardiography workstation (Nova Microsonics, Allendale, N.J.). […]
# [2] = system: acute, first response MI patients; assay: first response acute MI patients given D-ribose (subset of Group 1); assay type: in vivo, human; settings: seven first response MI patients
# Text: (§1) Following the initial study described in Example 2, 366 consecutive patients, 41-88 years of age, undergoing OPCABG were enrolled. Of these, 89 had recent MIs and seven presented with MIs within one to seven days. Prospectively collected data included comorbidities, hemodynamics and outcomes. All patients were managed with a protocol emphasizing normoglycemia, normothermia and reduced inflammation. Group 1 (n=308) received multiple oral doses (5 gram/dose) of D-ribose prior to and following surgery. […] Otherwise, both groups had similar preoperative characteristics including ejection fraction (EJ) and Society for Thoracic Surgery (STS) Risk Indices with nonsignificant trends in the increased comorbidities in Group 1.
# A. While these studies are promising, neither replicates the clinical situation of a patient presenting at first response with an acute myocardial infarction, where time is of the essence. In most cases, MI is a spontaneous event, but an MI can be induced during a procedure such as angiogram, angioplasty or dobutamine echocardiography. Such a patient is generally in the process of compromising cardiac function.
# It should also be mentioned that these seven patients are included in Group 1 of Table I. With preloading with D-ribose, they were able to maintain and slightly increase their CI in comparison to the total group.
# [3] = system: patients undergoing OPCABG; assay: metabolically directed protocol: oral D-ribose prior to and following OPCABG; assay type: in vivo, human
# Text: as §1
# [4] = system: rats subjected to an anterior MI; settings: intravenous ribose for 14 days previous to the inducement of MI; cited from earlier work
# [5] = Group 1, oral D-ribose, p<0.001 versus Group 2
smiles,measurement,setting,value
O=C[C@H](O)[C@H](O)[C@H](O)CO [D-ribose],ATP recovery,healthy dog hearts,enhanced ATP recovery
same,patients who developed hypoglycemia (fingerstick glucose <70 mg/dl),"[1]; both, human, in vivo",28%
same,lowest glucose level,"[1]; human, in vivo",31 mg/dL
same,mean glucose level in those patients developing hypoglycemia,"[1]; human, in vivo",58 mg/dL
same,neurological or other clinical symptoms associated with hypoglycemia,"[1]; human, in vivo",None
same,subjects in whom study drug infusion was stopped because of hypoglycemia,"[1]; human, in vivo",two
same,mean Day 7 EF,"[1]; ribose treated patients, Day 7, echocardiography, IV infusion 100 mg/kg/hr",41%
same,mean baseline EF,"[1]; ribose treated patients, baseline, echocardiography, IV infusion 100 mg/kg/hr",44%
same,Change (Preop CI to Postop CI),[2],+0.41
same,Postop CI,[2],2.60 ± 0.4
same,Preop CI,[2],2.19 ± 0.7
same,postoperative death,[3]; Group 1,one
same,time in intensive care,"[3]; Group 1 (n=308), multiple oral doses 5 gram/dose prior to and following surgery, trend not significant",72 h
same,requirement for IABP,"[3]; Group 1 (n=308), oral D-ribose, trend not significant",12%
same,increase in CI after surgery,[3]; [5],0.8
same,patients demonstrating an increase in CI after OPCABG,[3]; [5],86%
same,Postop CI,"[3]; Group 1, postoperative cardiac index",3.0 ± 0.7
same,Preop CI,"[3]; Group 1, preoperative cardiac index",2.3 ± 0.5
same,Change (Preop CI to Postop CI),[3]; Group 1 of Table I,+0.07
same,"parameters of heart function (LV diastolic diameter, LV systolic diameter, ejection fraction, shortening fraction)",[4],Significant improvement
